# Measured values published in publication PMC8847371 (Nature Communications, 2022).
# Where “and” joins values, the source holds several entries; their conditions need not be identical. Identical values can stand only once.
# Tested on: SARS-CoV-2 B.1.1.7 (alpha variant)
# Format: cell-based
# Settings: 3 µM
compound,measurement,value
N#C[C@@]1(c2ccc3c(N)ncnn23)O[C@H](CO)[C@@H](O)[C@H]1O [GS-441524],Log vRNA,4 and 4.2 and 4.3
